Target: human-cGAS (h-cGAS) (Homo sapiens, UniProt Q8N884)
Test: hcGAS Kinase-Glo Assay
Format: biochemical
Settings: 40 nM h-cGAS, 100 μM ATP, 100 μM GTP, 25 nM dsDNA, 3 h incubation, read-out: hcGAS potency IC50
Summary of the method: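 IC50 values come from a luminescence-based Kinase-Glo measurement on human cGAS. Conditions follow the Lama et al. 2019 method with minor modifications.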

Sequence of human-cGAS (h-cGAS) (Q8N884 whole entry): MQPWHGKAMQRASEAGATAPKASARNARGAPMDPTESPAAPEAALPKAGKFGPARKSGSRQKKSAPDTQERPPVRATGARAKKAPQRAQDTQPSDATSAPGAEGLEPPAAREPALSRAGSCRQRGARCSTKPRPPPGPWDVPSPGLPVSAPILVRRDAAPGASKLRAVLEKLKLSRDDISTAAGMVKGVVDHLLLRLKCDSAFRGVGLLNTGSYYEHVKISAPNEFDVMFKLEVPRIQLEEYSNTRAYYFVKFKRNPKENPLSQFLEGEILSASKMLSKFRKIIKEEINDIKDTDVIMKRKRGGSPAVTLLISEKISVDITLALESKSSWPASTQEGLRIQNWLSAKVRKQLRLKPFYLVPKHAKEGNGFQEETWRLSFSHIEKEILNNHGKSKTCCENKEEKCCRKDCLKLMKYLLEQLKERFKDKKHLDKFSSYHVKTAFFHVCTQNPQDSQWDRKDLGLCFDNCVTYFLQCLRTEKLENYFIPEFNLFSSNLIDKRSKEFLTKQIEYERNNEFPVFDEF

| Structure (SMILES) | IC50 [nM] |
| --- | --- |
| O=C(Nc1nnc(-c2ccccc2Cl)s1)c1cc(-c2ccccc2)cc(=O)o1 [Compound 205, N-[5-(2-chlorophenyl)-1,3,4-thiadiazol-2-yl]-6-oxo-4-phenylpyran-2-carboxamide] | 100 to 500 |
| O=C(Nc1nnc(-c2ccccc2Cl)s1)c1cc(Nc2ccccc2)cc(=O)o1 [Compound 206, N-[5-(2-chlorophenyl)-1,3,4-thiadiazol-2-yl]-6-oxo-4-(phenylamino) pyran-2-carboxamide] | < 100 |
| CSc1nnc(NC(=O)c2cc3ccccc3c(=O)o2)s1 [Compound 207, N-(5-(methylthio)-1,3,4-thiadiazol-2-yl)-1-oxo-1H-isochromene-3-carboxamide] | ≥ 1000 |
| CSc1nnc(NC(=O)c2cc(-c3ccccc3)no2)s1 [Compound 208, N-[5-(methylsulfanyl)-1,3,4-thiadiazol-2-yl]-3-phenyl-1,2-oxazole-5-carboxamide] | 500 to 1000 |
| CSc1nnc(NC(=O)c2cc(-c3cccc(Cl)c3)no2)s1 [Compound 209, 3-(3-chlorophenyl)-N-[5-(methylsulfanyl)-1,3,4-thiadiazol-2-yl]-1,2-oxazole-5-carboxamide] | 500 to 1000 |
| COc1ccc(-c2cc(C(=O)Nc3nnc(SC)s3)on2)cc1 [Compound 210] | ≥ 1000 |
| CSc1nnc(NC(=O)c2cc(-c3cccc(F)c3)no2)s1 [Compound 211, 3-(3-fluorophenyl)-N-[5-(methylsulfanyl)-1,3,4-thiadiazol-2-yl]-1,2-oxazole-5-carboxamide] | 500 to 1000 |
| COc1cccc(-c2cc(C(=O)Nc3nnc(SC)s3)on2)c1 [Compound 212, 3-(3-methoxyphenyl)-N-[5-(methylsulfanyl)-1,3,4-thiadiazol-2-yl]-1,2-oxazole-5-carboxamide] | ≥ 1000 |
| CSc1nnc(NC(=O)c2cc(-c3ccccc3)cc(=O)o2)s1 [Compound 213, N-[5-(methylsulfanyl)-1,3,4-thiadiazol-2-yl]-6-oxo-4-phenylpyran-2-carboxamide] | 100 to 500 |
| CSc1nnc(NC(=O)c2cc(-c3cccc(C#N)c3)no2)s1 [Compound 214, 3-(3-cyanophenyl)-N-[5-(methylsulfanyl)-1,3,4-thiadiazol-2-yl]-1,2-oxazole-5-carboxamide] | ≥ 1000 |
| CSc1nnc(NC(=O)c2cc(-c3ccc(C)cc3)no2)s1 [Compound 215, 3-(4-methylphenyl)-N-[5-(methylsulfanyl)-1,3,4-thiadiazol-2-yl]-1,2-oxazole-5-carboxamide] | 500 to 1000 |
| CSc1nnc(NC(=O)c2cc(-c3ccccc3Cl)no2)s1 [Compound 216] | 500 to 1000 |
| CSc1nnc(NC(=O)c2cc(-c3ccccc3F)no2)s1 [Compound 217, 3-(2-fluorophenyl)-N-(5-(methylthio)-1,3,4-thiadiazol-2-yl)isoxazole-5-carboxamide] | 100 to 500 |
| CSc1nnc(NC(=O)c2cc(-c3ccccc3C)no2)s1 [Compound 218, 3-(2-methylphenyl)-N-[5-(methylsulfanyl)-1,3,4-thiadiazol-2-yl]-1,2-oxazole-5-carboxamide] | 500 to 1000 |
| CSc1nnc(NC(=O)c2cc(-c3cccc(C)c3)no2)s1 [Compound 219, 3-(3-methylphenyl)-N-[5-(methylsulfanyl)-1,3,4-thiadiazol-2-yl]-1,2-oxazole-5-carboxamide] | 500 to 1000 |
| CSc1nnc(NC(=O)c2onc3c2ccc2ccccc23)s1 [Compound 220, N-[5-(methylsulfanyl)-1,3,4-thiadiazol-2-yl]naphtho[1,2-c][1,2]oxazole-3-carboxamide] | 100 to 500 |
| CSc1nnc(NC(=O)c2onc3cc(C)ccc23)s1 [Compound 221, 6-methyl-N-[5-(methylsulfanyl)-1,3,4-thiadiazol-2-yl]-2,1-benzoxazole-3-carboxamide] | 100 to 500 |
| CSc1nnc(NC(=O)c2onc3cc(F)ccc23)s1 [Compound 222, 6-fluoro-N-[5-(methylsulfanyl)-1,3,4-thiadiazol-2-yl]-2,1-benzoxazole-3-carboxamide] | 500 to 1000 |
| CSc1nnc(NC(=O)c2onc3ccc(F)cc23)s1 [Compound 223, 5-fluoro-N-[5-(methylsulfanyl)-1,3,4-thiadiazol-2-yl]-2,1-benzoxazole-3-carboxamide] | 500 to 1000 |
| COc1ccc2noc(C(=O)Nc3nnc(SC)s3)c2c1 [Compound 224, 5-methoxy-N-[5-(methylsulfanyl)-1,3,4-thiadiazol-2-yl]-2,1-benzoxazole-3-carboxamide] | ≥ 1000 |
| CSc1nnc(NC(=O)c2ccc(-c3ccccc3)c(=O)o2)s1 [Compound 225, N-[5-(methylsulfanyl)-1,3,4-thiadiazol-2-yl]-6-oxo-5-phenylpyran-2-carboxamide] | ≥ 1000 |
| CSc1nnc(NC(=O)c2onc3c(C)cccc23)s1 [Compound 226, 7-methyl-N-[5-(methylsulfanyl)-1,3,4-thiadiazol-2-yl]-2,1-benzoxazole-3-carboxamide] | ≥ 1000 |

| Structure (SMILES) | IC50 [nM] |
| --- | --- |
| CSc1nnc(NC(=O)c2onc3ccc(C)cc23)s1 [Compound 227, 5-methyl-N-[5-(methylsulfanyl)-1,3,4-thiadiazol-2-yl]-2,1-benzoxazole-3-carboxamide] | 500 to 1000 |
| CSc1nnc(NC(=O)c2onc3c(Cl)cccc23)s1 [Compound 228, 7-chloro-N-[5-(methylsulfanyl)-1,3,4-thiadiazol-2-yl]-2,1-benzoxazole-3-carboxamide] | 500 to 1000 |
| CSc1nnc(NC(=O)c2onc3ccc(Cl)cc23)s1 [Compound 229, 5-chloro-N-[5-(methylsulfanyl)-1,3,4-thiadiazol-2-yl]-2,1-benzoxazole-3-carboxamide] | 500 to 1000 |
| COc1cccc2c(C(=O)Nc3nnc(SC)s3)onc12 [Compound 230, 7-methoxy-N-[5-(methylsulfanyl)-1,3,4-thiadiazol-2-yl]-2,1-benzoxazole-3-carboxamide] | 100 to 500 |
| COc1ccc2c(C(=O)Nc3nnc(SC)s3)onc2c1 [Compound 231, 6-methoxy-N-[5-(methylsulfanyl)-1,3,4-thiadiazol-2-yl]-2,1-benzoxazole-3-carboxamide] | 100 to 500 |
| CSc1nnc(NC(=O)c2oncc2-c2ccccc2)s1 [Compound 232, N-[5-(methylsulfanyl)-1,3,4-thiadiazol-2-yl]-4-phenyl-1,2-oxazole-5-carboxamide] | 500 to 1000 |
| CSc1nnc(NC(=O)c2cc(Cc3ccccc3)no2)s1 [Compound 233, 3-benzyl-N-[5-(methylsulfanyl)-1,3,4-thiadiazol-2-yl]-1,2-oxazole-5-carboxamide] | 500 to 1000 |
| CSc1nnc(NC(=O)c2nc(-c3ccccc3)no2)s1 [Compound 234, N-[5-(methylsulfanyl)-1,3,4-thiadiazol-2-yl]-3-phenyl-1,2,4-oxadiazole-5-carboxamide] | 500 to 1000 |
| CSc1nnc(NC(=O)c2nnc(-c3ccccc3)o2)s1 [Compound 235, N-[5-(methylsulfanyl)-1,3,4-thiadiazol-2-yl]-5-phenyl-1,3,4-oxadiazole-2-carboxamide] | 500 to 1000 |
| CSc1nnc(NC(=O)c2noc(-c3ccccc3)n2)s1 [Compound 236, N-(5-methylsulfanyl-1,3,4-thiadiazol-2-yl)-5-phenyl-1,2,4-oxadiazole-3-carboxamide] | 500 to 1000 |
| CSc1nnc(NC(=O)c2cc(-c3ccccc3F)cc(=O)o2)s1 [Compound 237, 4-(2-fluorophenyl)-N-(5-methylsulfanyl-1,3,4-thiadiazol-2-yl)-6-oxo-pyran-2-carboxamide] | 100 to 500 |
| CSc1nnc(NC(=O)c2cc(-c3cccc(F)c3)cc(=O)o2)s1 [Compound 238, 4-(3-fluorophenyl)-N-(5-methylsulfanyl-1,3,4-thiadiazol-2-yl)-6-oxo-pyran-2-carboxamide] | 100 to 500 |
| CSc1nnc(NC(=O)c2cc(-c3ccc(F)cc3)cc(=O)o2)s1 [Compound 239, 4-(4-fluorophenyl)-N-(5-methylsulfanyl-1,3,4-thiadiazol-2-yl)-6-oxo-pyran-2-carboxamide] | 100 to 500 |
| CSc1nnc(NC(=O)c2cc(-c3cccc(Cl)c3)cc(=O)o2)s1 [Compound 240, 4-(3-chlorophenyl)-N-(5-methylsulfanyl-1,3,4-thiadiazol-2-yl)-6-oxo-pyran-2-carboxamide] | 100 to 500 |
| COc1cccc(-c2cc(C(=O)Nc3nnc(SC)s3)oc(=O)c2)c1 [Compound 241, 4-(3-methoxyphenyl)-N-(5-methylsulfanyl-1,3,4-thiadiazol-2-yl)-6-oxo-pyran-2-carboxamide] | 100 to 500 |
| CSc1nnc(NC(=O)c2onc(C)c2C)s1 [Compound 242, 3,4-dimethyl-N-(5-methylsulfanyl-1,3,4-thiadiazol-2-yl)isoxazole-5-carboxamide] | 500 to 1000 |
| CSc1nnc(NC(=O)c2cc(-c3ccc(Cl)cc3)cc(=O)o2)s1 [Compound 243, 4-(4-chlorophenyl)-N-(5-methylsulfanyl-1,3,4-thiadiazol-2-yl)-6-oxo-pyran-2-carboxamide] | 500 to 1000 |
| COc1ccccc1-c1cc(C(=O)Nc2nnc(SC)s2)oc(=O)c1 [Compound 244, 4-(2-methoxyphenyl)-N-(5-methylsulfanyl-1,3,4-thiadiazol-2-yl)-6-oxo-pyran-2-carboxamide] | 100 to 500 |
| CSc1nnc(NC(=O)c2cc(-c3ccc4ccccc4c3)cc(=O)o2)s1 [Compound 245, N-(5-methylsulfanyl-1,3,4-thiadiazol-2-yl)-4-(2-naphthyl)-6-oxo-pyran-2-carboxamide] | 100 to 500 |
| CSc1nnc(NC(=O)c2cc(-c3cccc4cccnc34)cc(=O)o2)s1 [Compound 246, N-(5-methylsulfanyl-1,3,4-thiadiazol-2-yl)-6-oxo-4-(8-quinolyl)pyran-2-carboxamide] | 100 to 500 |
| CSc1nnc(NC(=O)c2cc(-c3ccnc4ccccc34)cc(=O)o2)s1 [Compound 247, N-(5-methylsulfanyl-1,3,4-thiadiazol-2-yl)-6-oxo-4-(4-quinolyl)pyran-2-carboxamide] | 500 to 1000 |
| CSc1nnc(NC(=O)c2cc(-c3ccccc3C)cc(=O)o2)s1 [Compound 248] | 100 to 500 |

Reference: patent US20250002487A1, “HETEROCYCLIC COMPOUNDS AND USES THEREOF” (Ventus Therapeutics U.S., Inc., priority 2021, published 2025)
